Results published in patent publication US10617769B2, “Bacterium-contained hydrogel and method of making the same” (TCI Co., Ltd., priority 2016, dated 2020).
Converted amounts (≈) assume the structure as drawn.

Legend:
S. epidermidis = assay: Fermentation of PEG-monosaccharide polymers in solid agar medium with phenol red; assay type: cell-based, Staphylococcus epidermidis; conditions: compound (+), S. epidermidis added to solid agar medium
Description: (§1) The experimental method is described as follows: compound A and compound B were respectively added to the solid agar media, and S. epidermidis or P. acnes were added to the media, then the bacteria were incubated, and then the color of phenol red in the media were recorded.

P. acnes = assay: as above; assay type: cell-based, Propionibacterium acnes; conditions: compound (+), P. acnes added to solid agar medium
Description: as §1

USA300 [1] = assay: Minimum bactericidal concentration (MBC) assay, anti-USA300 activity of SCFAs; assay type: cell-based, Staphylococcus aureus; conditions: USA300 10^6 CFU/mL, overnight incubation, tested 0.02 mM to 100 mM; for MBC: Staphylococcus aureus
Description: Experimental method: USA 300 (10^6 CFU/m L) were respectively incubated with different concentrations of butyric acid or acetic acid on 96-well microtiter plates overnight; the testing concentrations of acetic acid and butyric acid were from 0.02 mM to 100 mM, each well was respectively added 100 microliters of acetic acid or butyric acid with different concentrations. In the control groups, only PBS was added to the wells. After incubation, the USA300 was diluted 1:10^0 to 1:10^5 with PBS, 5 μl of the dilution was spread to the agar plate; after overnight incubation, colonies (CFU) on the algal plate were counted. MBC is defined as the degree of sterilization at 99.9% (greater than […] colony/mL).
Referring to FIG. 4A through FIG. 4D. FIG. 4A and FIG. 4C show the images of bacterial growth on culture plates. […] UD means undetectable.

USA300 [2] = conditions: in vitro and in vivo; stated as known; cited from earlier work

Row | Compound | Color of phenol red in the medium (S. epidermidis) | Color of phenol red in the medium (P. acnes) | MBC (USA300 [1]) | Concentration for complete inhibition (USA300 [1]) | Growth of USA300 (USA300 [2])
1 | C#CCOCCOCCOCCOCCOC1OC(CO)C(O)C(O)C1O [Compound A, propargyl-PEG5-beta-D-glucose] | Yellow | Red | – | – | –
2 | C#CCOCCOCCOCCOCCOC1OC(COC(C)=O)C(OC(C)=O)C(OC(C)=O)C1OC(C)=O [Compound B, PEG5-tetra-Ac-beta-D-glucose] | Yellow | Red | – | – | –
3 | CC(=O)O [acetic acid] | – | – | 10 mM (≈ 601 µg/mL) | 50 mM | –
4 | CCCC(=O)O [butyric acid] | – | – | 10 mM (≈ 881 µg/mL) | 50 mM | –
5 | CCC(=O)O [propionic acid] | – | – | – | – | suppress the growth of USA300
